{"source": "patent US20240294570A1", "about": "“ENZYMATICALLY FORMING INTRANUCLEAR PEPTIDE ASSEMBLIES FOR SELECTIVELY KILLING INDUCED PLURIPOTENT STEM CELLS” (BRANDEIS UNIVERSITY, priority 2021, published 2024)", "system": "iPSCs", "assay": "CLSM imaging of peptide assemblies in iPSCs", "format": "cell-based, human", "procedure": "Confocal Laser Scanning Microscopy (CLSM) Imaging: For live cell imaging, cells in exponential growth phase were seeded in a confocal dish (3.5 cm) at 1.0×10^5 cells per dish and then incubated in incubator for 24 h. We removed culture medium, and added fresh medium containing precursors for different time points. After removing the medium and washing the cells with live cell imaging solution (2 mL×2), the cells were used for CLSM imaging. For time-dependent live cell imaging, cells in exponential growth phase were seeded in a confocal dish (3.5 cm) at 1.0×10^5 cells per dish and then incubated in incubator for 24 h. After removing culture medium, we treated the cells with 1 mL of Hoechst 33342 (1 μg mL^−1) for 10 minutes. After being washed with culture medium (2 mL×2), the cells were incubated with fresh medium containing precursor 5 in a Tokai Hit stage top incubator (STXF-WSKMX-SET) to be used for CLSM imaging. All the CLSM images were obtained using Zeiss LSM 880 confocal microscopy at the lens of 63× with oil. The lasers used are 405 nm and 488 nm.\nBecause the fluorescence of NBD increases drastically from unassembled to assembled state, confocal laser scanning microscopy (CLSM) was suitable to reveal the cellular location of the peptide assemblies formed after dephosphorylation catalyzed by ALP. […] The blackness in nuclei overlaps well with the strong fluorescence. […] The results confirms that the nucleus-targeting mainly originates from the ALP catalyzed dephosphorylation.\nTo trace the dynamics of the formation and distribution of 5 inside iPSC cells, time-lapse CLSM was also used to image the changes of the fluorescence in the iPSCs incubated by 5 (400 μM). Using one cell as a representative case, after 6 minutes incubation fluorescent puncta appear on the membrane, likely originating from the aggregates of assemblies of 5 and those of 6 generated by the dephosphorylation catalyzed by ALP. […] After 24 minutes incubation, fluorescence starts to grow in the cytoplasm. Considering the LLLLY motif in SEQ ID NO: 2 constitutes the transmembrane domains of 18 human membrane proteins, it is possible that the affinity of 5 or 6 to membrane allows the assemblies of the mixture of 5 and 6 to interact with cellular membranes, which then facilitates nuclear localization. At about 28 minutes of incubation, fluorescence appears in the nucleus. Moreover, the nuclei shrink after the assemblies emerge in the nuclei. In addition, the nuclei also show nuclear blebbing (Stephens et al., “Chromatin Histone Modifications and Rigidity Affect Nuclear Morphology Independent of Lamins,” Mol. Biol. Cell 29(2):220-233 (2018), which is hereby incorporated by reference in its entirety). The shrinkage of nuclei and nuclear blebbing likely associate with iPSC death. To further examine the dynamics of EISA-formed peptide assemblies in iPSCs over different time, the increase of fluorescence in two cells over 2 hours was monitored; their nuclei, A and B, are shown in FIG. 10A. […] The mean fluorescent intensity in Nucleus A starts to increase at 28 minutes and levels off after 110 minutes. For Nucleus B, the mean fluorescent intensity keeps increasing from 38 minutes. The increases of the fluorescence in the nuclei and nucleoli are synchronous. […] The assemblies inside the nuclei or near nuclear membrane induce nuclear blebbing and shrinkage of nuclei, which likely contributes to the cell death.", "key": {"[1]": {"conditions": "400 μM, time-lapse CLSM, one representative cell"}}, "note": "Non-standard residues stand in square brackets, D forms with d. Residues, ends and D or L forms follow the SMILES beside them. *: point of attachment. pY = N[C@@H](Cc1ccc(OP(=O)(O)O)cc1)C(=O)O; NBD = O=[N+]([O-])c1ccc(*)c2nonc12; βAla = NCCC(=O)O"}
{"smiles": "CC(C)C[C@H](NC(=O)CCNc1ccc([N+](=O)[O-])c2nonc12)C(=O)N[C@@H](CC(C)C)C(=O)N[C@@H](CC(C)C)C(=O)N[C@@H](CC(C)C)C(=O)N[C@@H](Cc1ccc(OP(=O)(O)O)cc1)C(=O)O", "note": "[compound 5, NBD-βA-LLLLpY] ({NBD-βAla}-LLLL[pY]-OH)", "values": [{"measurement": "NBD fluorescence in iPSCs", "setting": "200 μM", "value": "hardly any fluorescence in the cells"}, {"measurement": "NBD fluorescence in iPSCs with ALP inhibitor", "setting": "400 μM plus DQB 5 μM, 2 hours", "value": "little fluorescence in cells"}, {"measurement": "NBD fluorescence in iPSCs (location of peptide assemblies)", "setting": "400 μM, 2 hours", "value": "strong NBD fluorescence in nuclei"}, {"measurement": "incubation time at which fluorescence appears in the nucleus", "setting": "[1]", "value": "about 28 minutes"}, {"measurement": "incubation time at which fluorescence starts to grow in the cytoplasm", "setting": "[1]", "value": 24, "unit": "min"}, {"measurement": "incubation time at which fluorescent puncta appear on the membrane", "setting": "[1]", "value": 6, "unit": "min"}, {"measurement": "NBD fluorescence in iPSC nuclei", "setting": "400 μM, treatment time 1 hour", "value": "weaker fluorescence"}]}
